Experiments:
serum phosphate = settings: previous studies (2-10); cited from earlier work
[1] = Intra-arterial, perivenous, or intravenous tolerance studies; format: in vivo, rabbit; settings: intra-arterial
[2] = Acute toxicity relative to iron sucrose; settings: in vivo
Text: (§1) FCM can mimic physiologically occurring ferritin. FCM is metabolized by the glycolytic pathway.

FGF-23 = test: VIT-30: FGF-23; format: in vivo, human
Text: FIG. 1 is a line and scatter plot showing mean changes in phosphate (left vertical axis) or changes in FGF-23 (right vertical axis) with respect to baseline value at each study day (0, 7, 14, 28, or 56) as indicated on the Horizontal (X) axis for trial VIT30. […] Further details regarding methodology are provided in Example 2.
(§2) Study visits were on Days 0, 3, 7, 10, 14, 28, 56, and 120. A phone assessment occurred on Day 90.
For quantitative baseline characteristics, the association with FGF-23 at Screening was evaluated with Pearson product moment and Spearman correlations. For qualitative baseline characteristics, the association with FGF-23 at Screening was evaluated with mean differences in FGF-23 among categories of the baseline characteristic.
Descriptive statistics for FGF-23 at Screening (mean, median, standard deviation, quartiles, minimum, and maximum) were summarized for subgroups.

[3] = 13-week cumulative dose pre-clinical studies; format: in vivo, dogs and rats; settings: over 13 weeks; clinical signs of iron accumulation in liver, spleen, kidneys
[4] = system: hemoglobin, ferritin, TSAT; test: VIT-30 efficacy: hemoglobin and iron indices; format: in vivo, human
Method: as §2
The Venofer Group received 5 doses of Venofer, 200 mg for a total dose of 1,000 mg.
For Venofer, subjects received, as an IV push injection over 2 to 5 minutes, 200 mg on Days 0, 7, and 14 with 2 additional doses given: 1 between Days 0 and 7 and the other between Days 7 and 14 (i.e., for a total of 5 doses [1,000 mg]).
For efficacy, the primary efficacy measure was the mean change from baseline to the highest observed hemoglobin any time between baseline and end of treatment period (Day 56) or time of intervention. Supportive efficacy measures included the following: (a) proportion of subjects achieving an increase in hemoglobin of ≧1 g/dL any time between baseline and end of treatment period (Day 56) or time of intervention; (b) mean change from baseline to the highest observed ferritin any time between baseline and treatment period (Day 56) or time of intervention; (c) mean change from baseline to the highest observed TSAT any time between baseline and treatment period (Day 56) or time of intervention; and (d) mean change from baseline to the pre-dosing value on Day 7 for hemoglobin, ferritin, and TSAT.
The hemoglobin baseline was defined as the average of the last 2 hemoglobin values from the central laboratory prior to the first dose of study drug. If only 1 centrally-measured hemoglobin value was available prior to the first dose of study drug, the single value was used for baseline. Non-inferiority was concluded if the lower limit of the 2-sided CI was ≧−0.075. This non-inferiority margin preserved >50% of the difference from oral iron observed previously.
The mean change from baseline to highest TSAT and ferritin was assessed for treatment group differences with the 95% 2-sided CI (based on normal distribution, assuming equal variances). Mean change from baseline to each scheduled visit was similarly assessed for hemoglobin, TSAT, ferritin, serum iron, total iron binding capacity, and unsaturated iron binding capacity. Baseline was calculated as described above. Assessments were assigned to scheduled visits as follows (if the assessment was on a dosing day for IV iron, the assessment before dosing was selected): • Day 7: Assessments on Days 4 through 10. • Day 14: Assessments on Days 11 through 21. • Day 28: Assessments on Days 22 through 35. • Day 56: Assessments on Days 50 through 63.

phosphate = test: Prior studies 1VIT04002/1VIT04003: phosphate change after FCM; format: in vivo, human; settings: iron deficiency anemia secondary to heavy uterine bleeding; measured at baseline and days 7, 14, 28, 42; N=228
dextran antibodies = test: Dextran antigenicity test
Text: as §1

[5] = in vivo, cited from earlier work
[6] = Single-dose toxicity studies; format: in vivo, rodents and dogs

## polynuclear iron (III)-hydroxide 4(R)-(poly-(1→4)-O-α-glucopyranosyl)-oxy-2(R),3(S),5(R),6-tetrahydroxy-hexanoate [FCM]
Serum phosphate
  occurrence of transient reductions in serum phosphate levels: up to 60%
[1]
  treatment-related local tissue irritation: No treatment-related local tissue irritation was observed
[2]
  acute toxicity relative to iron sucrose: one-fifth
FGF-23; Days 7, 14, 28, 56, trial VIT30
  changes in FGF-23 with respect to baseline (FIG. 1): almost always decreases with respect to baseline (except for FCM on Day 14)
FGF-23; in vivo
  FGF 23 change from baseline to Day 56 within group: statistically significant decrease
[3]
  cumulative dose with no observed adverse effect level: up to 117 mg iron/kg body weight
[4]; anytime between baseline and Day 56 or time of intervention
  proportion of subjects with an increase in hemoglobin ≧1.0 g/dL, FCM compared with Venofer: statistically significantly greater
[4]; baseline to highest value between baseline and Day 56 or time of intervention
  mean increases in ferritin, TSAT, serum iron and mean decreases in TIBC and unsaturated IBC, FCM compared with Venofer: statistically significantly greater
[4]; between baseline and Day 56 or time of intervention
  mean increase in hemoglobin from baseline to highest value, FCM compared with Venofer: statistically significantly greater
[4]; lower limit of 2-sided 95% CI ≧−0.2
  noninferiority test on mean increase in hemoglobin, FCM to Venofer: noninferiority
[4]; overall population, 2-sided 95% CI
  noninferiority test on proportion with hemoglobin increase ≧1.0 g/dL, FCM to Venofer: noninferiority
phosphate
  mean change in phosphate: 1.9 mg/dL
Dextran antibodies
  specific responses in a dextran antigenicity test: no specific responses
[5]; iv
  tissue distribution after intravenous administration: mainly found in the liver, spleen, and bone marrow
[5]
  projected calculated terminal half-life (t1/2): approximately 16 hours
[6]
  safe and tolerated single intravenous dose, as multiple of the equivalent of 1,000 mg iron once weekly in humans: up to 60 times

From US20140162974A1, “METHODS FOR MODULATION OF PHOSPHORUS AND FGF23” (Luitpold Pharmaceuticals, Inc., priority 2012, published 2014)
